Our source for the target mRNA inhibition values is the OligoGym collection.

The target of this data set is KRAS. The following applies: ASO.

Where “and” joins values, the source holds several entries; their conditions need not be identical. Equal entries are not always repeated. After the bases stand the sugars from the 5' end (letter, count) and the backbone: PS all phosphorothioate, else s phosphorothioate and o phosphodiester by linkage. Methylation of C is not given here. e = 2'-O-(2-methoxyethyl) (MOE); k = constrained ethyl (cEt); d = 2'-deoxy (DNA)

On to GTGTTTATGCAATGTT (sugars k3 d10 k3, PS), for which the target mRNA inhibition was 83% (A431, 0.125 µM); 31% (A431, 0.185 µM); 52% (A431, 0.556 µM); 77% (A431, 1.667 µM); 89% (A431, 5 µM); 76.8% (NCI-H460, 0.037 µM).
For the sequence “TTGATTTGTCAGCAGG (sugars k3 d9 k3 e1, PS)”, the target mRNA inhibition (A431, 2 µM) was 55% and 30%.
Regarding TCTCTATGAAAGCTCA (sugars k3 d10 k3, PS), the target mRNA inhibition runs as follows: (A431, 0.037 µM) 61%; (A431, 2 µM) 50%; (A431, 5 µM) 96% and 92%; (NCI-H460, 0.037 µM) 49.7%.
Consider ATGGTTAGGGGAATTA (sugars k3 d10 k3, PS), for which the target mRNA inhibition (A431, 2 µM) is 33%.
Still for that read-out and setting: the value for “CAGTGTTAAGAGAACT (sugars kkddddddddkekekk, PS)” was 35%; that for “AGGAGTCTTTATAGTA (sugars kkdddddddddkekek, PS)” was 31%.
Turning to “CATTCAAAGTTCACAT (sugars kkddddddddkekekk, PS)”, the target mRNA inhibition is 5% (A431, 0.185 µM); 7% (A431, 0.556 µM); 9% (A431, 1.667 µM); 96% (A431, 2 µM); 16% (A431, 5 µM).
For the sequence AAAGTTCACATAAAGG (sugars k3 d10 k3, PS), the target mRNA inhibition (A431, 2 µM) is 38%.
In the case of “TGTTTATGCAATGTTA (sugars kkdddddddddkekek, PS)”, the target mRNA inhibition amounted to 50% (A431, 0.185 µM); 46% (A431, 0.556 µM); 69% (A431, 1.667 µM); 56% (A431, 2 µM); 82% (A431, 5 µM).
In the same order, the values of “GTGTTTATGCAATGTT (sugars kkkddddddddkekek, PS)” are 33%, 55%, 69%, 66% and 78%.
Take ATCTTATGGTTAGGGG (sugars k3 d10 k3, PS): where the note is “A431, 2 µM”, the target mRNA inhibition stood at 20%.
For the setting “A431, 2 µM”, AAAGCTATTAGGAGTC (sugars k3 d10 k3, PS) had a target mRNA inhibition of 65%.
Where the note is “A431, 2 µM”, CTTTTAATGTCACAAG (sugars k3 d10 k3, PS) had a target mRNA inhibition of 9%.
With “ACCATTCAAAGTTCAC (sugars kkkddddddddkekek, PS)”, the target mRNA inhibition (A431, 2 µM) came out at 26%.
The same measure, in the same setting: with TTACTTTTTGACAAAT (sugars k3 d10 k3, PS) the figure was 0%; with TGTAAATATAGCCCCA (sugars k3 d10 k3, PS), 34%.
In the case of TTTCTGATGTGACTCA (sugars k3 d10 k3, PS), the target mRNA inhibition was found to be 0% (A431, 0.185 µM); 23% (A431, 0.556 µM); 43% (A431, 1.667 µM); 57% (A431, 2 µM); 60% (A431, 5 µM).
The sequence “CTTGATTTGTCAGCAG (sugars kdddddddddkekeke, PS)” yielded a target mRNA inhibition (A431, 0.037 µM) of 51% and a target mRNA inhibition (A431, 2 µM) of 44%.
Turning to TCCAGTGATACTTTCA (sugars k3 d10 k3, PS), the target mRNA inhibition (A431, 2 µM) stood at 51%.
GTAATTAATCCATTTA (sugars k3 d10 k3, PS): the target mRNA inhibition (A431, 2 µM) is 15%.
For the sequence “CTTGATTTGTCAGCAG (sugars kkddddddddkekekk, PS)”, the target mRNA inhibition amounted to 55% (A431, 0.037 µM) and 33% (A431, 2 µM).
As for AAAAAAAAAATTAATG (sugars k3 d10 k3, PS), the target mRNA inhibition (A431, 2 µM) came to 6%.
The same measure, in the same setting: with AATTAATCCATTTATG (sugars k3 d10 k3, PS) the figure was 16%.
The same measure, in the same setting: the value for “GAGTCTTTATAGTAAT (sugars kdddddddddkekeke, PS)” was 21%; that for TATTAGGAGTCTTTAT (sugars k3 d10 k3, PS) was 13%; that for “AGATTGTGCTGAGCTT (sugars kkddddddddddkeke, PS)” was 40%.
With “ACCAGTGTTAAGAGAA (sugars kkkddddddddkdkdk, PS)”, where the note is “A431, 2 µM”, the target mRNA inhibition was found to be 50%.
Still for that read-out and setting: with TAGTGATTAGGTCAAA (sugars k3 d10 k3, PS) the figure was 21%.
The same measure, in the same setting: with GTATCTTGTTGAGCTA (sugars k3 d10 k3, PS) the figure was 56%; with ATCCAGTATTAACACA (sugars k3 d10 k3, PS), 0%.
Consider “CCATTCAAAGTTCACA (sugars kkdddddddddkdkdk, PS)”, for which, under “A431, 2 µM”, the target mRNA inhibition turned out to be 31%.
The same measure, in the same setting: the value for TGTAGGGCATTTCTGA (sugars k3 d10 k3, PS) was 0%; that for “ACCATTCAAAGTTCAC (sugars kkddddddddddkeke, PS)” was 41%; that for TTGCTATAATAATCCC (sugars k3 d10 k3, PS) was 39%.
Same read-out and setting: the value for TTAATGTCACAAGCAG (sugars k3 d10 k3, PS) was 52%.
Same read-out and setting: with “TGATTTGTCAGCAGGA (sugars kddddddddddkekek, PS)” the figure was 47%; with “TAGTGATTAGGTCAAA (sugars kkddddddddkekekk, PS)”, 42%; with “GTCCAGTGATACTTTC (sugars kkkddddddddkekek, PS)”, 21%.
For the sequence “GTGTTTATGCAATGTT (sugars kkddddddddddkeke, PS)”, the target mRNA inhibition is, setting by setting: (A431, 0.185 µM) 44%; (A431, 0.556 µM) 71%; (A431, 1.667 µM) 83%; (A431, 2 µM) 73%; (A431, 5 µM) 92%.
ATGTAAATATAGCCCC (sugars k3 d10 k3, PS) showed a target mRNA inhibition (A431, 2 µM) of 28%.
For the sequence ATAATGGTGAATATCT (sugars k3 d10 k3, PS), where the note is “A431, 2 µM”, the target mRNA inhibition turned out to be 41%.
Regarding AGGTAAAAGCTAACAG (sugars k3 d10 k3, PS), the target mRNA inhibition came out at 46% (A431, 0.037 µM); 41% (A431, 2 µM); 37.3% (NCI-H460, 0.037 µM).
Where the note is “A431, 2 µM”, ATAATAGTTTCCATTG (sugars k3 d10 k3, PS) returned a target mRNA inhibition of 8%.
Same read-out and setting: the value for “GCTGTGAAACTCTCTA (sugars kddddddddddkekek, PS)” was 41%; that for “TTGATTTGTCAGCAGG (sugars kkkddddddddkdkdk, PS)” was 19%; that for TCACTTCATTGTTTAA (sugars k3 d10 k3, PS) was 32%.
The same measure, in the same setting: the value for AAACGAGAATGGATAT (sugars k3 d10 k3, PS) was 12%; that for TACTTTTTGACAAATG (sugars k3 d10 k3, PS) was 37%.
In the case of AGACTTGAAAAGTGTT (sugars k3 d10 k3, PS), the target mRNA inhibition (A431, 2 µM) is 28%.
Sequence “TCCATTTATGTGACTA (sugars kkddddddddddkeke, PS)” yielded a target mRNA inhibition (A431, 2 µM) of 22%.
For the setting “A431, 2 µM”, “CCATTTATGTGACTAG (sugars kkddddddddddkeke, PS)” gave a target mRNA inhibition of 46%.
“CTTGATTTGTCAGCAG (sugars kkddddddddddkeke, PS)” came in with a target mRNA inhibition (A431, 2 µM) of 54%.
The same measure, in the same setting: with “CATTTATGTGACTAGA (sugars kddddddddddkekek, PS)” the figure was 24%.
The sequence TAACCAGTGTTAAGAG (sugars k3 d10 k3, PS) registered a target mRNA inhibition (A431, 2 µM) of 40%.
Same read-out and setting: the value for AAATTGTGCAATGGTG (sugars k3 d10 k3, PS) was 48%; that for ACTTCATTGTTTAAAA (sugars k3 d10 k3, PS) was 0%.
With TGGTGTAACATAGGTT (sugars k3 d10 k3, PS), the target mRNA inhibition (A431, 0.185 µM) was determined as 0%; the target mRNA inhibition (A431, 0.556 µM) stood at 35%; the target mRNA inhibition (A431, 1.667 µM) is 61%; the target mRNA inhibition (A431, 2 µM) was 58%; the target mRNA inhibition (A431, 5 µM) was determined as 78%.
For AAGCTATTAGGAGTCT (sugars k3 d10 k3, PS), for the setting “A431, 2 µM”, the target mRNA inhibition came out at 65%.
CCATTTATGTGACTAG (sugars k3 d10 k3, PS): the target mRNA inhibition (A431, 0.125 µM) was 70% and 67%; the target mRNA inhibition (A431, 0.185 µM) was 30% and 14%; the target mRNA inhibition (A431, 0.556 µM) was 56% and 35%; the target mRNA inhibition (A431, 2 µM) was 94% and 75%; the target mRNA inhibition (A431, 5 µM) was 83% and 72%; the target mRNA inhibition (NCI-H460, 0.037 µM) stood at 52.4%.
In the case of GCTATAATAATCCCCA (sugars k3 d10 k3, PS), the target mRNA inhibition is, setting by setting: (A431, 0.185 µM) 1%; (A431, 0.556 µM) 24%; (A431, 1.667 µM) 55%; (A431, 2 µM) 56%; (A431, 5 µM) 68%.
Take “ATGGTGTAACATAGGT (sugars k3 d9 k3 e1, PS)”: the target mRNA inhibition (A431, 2 µM) came to 47%.
For the setting “A431, 2 µM”, AAACAAATGCTAATAA (sugars k3 d10 k3, PS) gave a target mRNA inhibition of 9%.
As for “TCCATTTATGTGACTA (sugars kkddddddddkekekk, PS)”, the target mRNA inhibition (A431, 2 µM) stood at 29%.
The same measure, in the same setting: with “TTGATTTGTCAGCAGG (sugars kdddddddddkekeke, PS)” the figure was 22%; with CAAAGTTCACATAAAG (sugars k3 d10 k3, PS), 21%; with AGTCCAGTGATACTTT (sugars k3 d10 k3, PS), 8%.
On the same count and under the same terms, the value for “CATTCAAAGTTCACAT (sugars kdddddddddkekeke, PS)” was 24%; that for GCATTGCTAGTTCAAA (sugars k3 d10 k3, PS) was 46%.
For the setting “A431, 2 µM”, “GTCCAGTGATACTTTC (sugars kkdddddddddkekek, PS)” had a target mRNA inhibition of 43%.
Turning to TGATTTGTCAGCAGGA (sugars k3 d10 k3, PS), the target mRNA inhibition was 19% and 0% (A431, 0.185 µM); 58% and 36% (A431, 0.556 µM); 72% and 58% (A431, 1.667 µM); 59% (A431, 2 µM); 81% and 74% (A431, 5 µM).
GAGAATGGATATTCAA (sugars k3 d10 k3, PS): the target mRNA inhibition (A431, 2 µM) was 8%.
